Non-standard residues stand in square brackets, D forms with d. Residues, ends and D or L forms follow the SMILES beside them. *: point of attachment. CH2(1-naphthyl) = c1ccc2c(C*)cccc2c1; Benzyl(3,4-Cl2) = Clc1ccc(C*)cc1Cl; Pyrazinecarbonyl = O=C(c1cnccn1)*; X26 = Clc1ccc(-c2ncc(C*)s2)cc1; X35 = Cc1noc(C)c1-c1nc(C*)no1; X36 = c1ccc(-c2ccc(C*)cc2)cc1; Hyp = O=C(O)[CH]1C[CH](O)CN1; X25 = c1ccc(-c2nc(C*)no2)cc1; X5 = c1ccc(Oc2cccc(C*)c2)cc1; X11 = c1ccc(-c2ccccc2C*)cc1; X2 = COc1ccccc1-c1nc(C*)no1; X21 = FC(F)(F)Oc1cccc(C*)c1; X27 = Fc1cc2c(c(C*)c1)OCOC2; X7 = O=C(c1ccc(Cl)c(Cl)c1)*; X20 = FC(F)(F)c1cccc(C*)c1; X24 = FC(F)(F)c1ccc(C*)cc1; X4 = FC(F)(F)Oc1ccc(C*)cc1; X15 = Clc1cc2c(cc1C*)OCO2; X31 = Clc1ccc2scc(C*)c2c1; X40 = CC(C)(C)c1nc(C*)no1; X10 = c1ccc2cc(C*)ccc2c1; Abu = CC[CH](N)C(=O)O; X22 = N#Cc1cccc(C*)c1; X33 = N#Cc1ccc(C*)cc1; X29 = Fc1ccc(C*)cc1F; Bz = O=C(c1ccccc1)*; X1 = Cc1noc(C)c1C*

T1 sequence (P27958 1027-1208): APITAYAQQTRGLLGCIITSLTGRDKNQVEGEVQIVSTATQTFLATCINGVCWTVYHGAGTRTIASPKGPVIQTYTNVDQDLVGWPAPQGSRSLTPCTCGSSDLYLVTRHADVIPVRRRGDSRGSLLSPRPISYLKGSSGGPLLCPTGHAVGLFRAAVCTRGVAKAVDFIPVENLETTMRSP

This assay addresses T1, HCV NS3 protease (Hepatitis C virus genotype 1a, UniProt P27958).
T1 construct: more particularly HCV NS3 proteases
Description: Enzyme inhibition of HCV NS3 serine protease (cleavage of peptide substrate / EDVV AbuC-p-nitroanilide, with or without NS4A). Conditions: Enzyme inhibition data; Ki from rate vs [inhibitor] plots, Morrison tight binding competitive inhibition fit; 30 C, pH 7.8; read-out: Ki. It is filed as biochemical. How it is done:
Cleavage reactions were quenched by the addition of an equal volume of a mixture of 10% TFA:acetonitrile (1:1) and activity was assessed on a reversed phase HPLC column (Rainin C18 Microsorb-MV, […], 4.6×250 mm; 0-50% acetonitrile, 0.1% TFA@ 3.33% min) using a Hewlett Packard 1050 instrument with auto-injection and diode array detection at 210 nm and 280 nm (where appropriate). Peptide elution fragments were collected and identified by mass spectrometry and N-terminal sequence analysis. Fragment identity and concentration was further verified by authentic, synthesized products. Initial rates of cleavage were determined at <20% substrate conversion and catalytic parameters were determined assuming Michaelis-Menten kinetics using the MultiFit program (Day Computing, Cambridge, Mass.).
Spectrophotometric assays were run in a 96-well microtiter plate at 30 C, using a SpectraMax 250 reader (Molecular Devices, Sunnyvale, Calif.) with kinetic capability. Cleavage of EDVV AbuC-p-nitroanilide (5A-pNA) substrate was performed with or without […] in the same buffer used for HPLC assays at 30 C, and pNA release was monitored at 405 nm. The extinction-coefficient of p-nitroaniline is independent of pH at values of 5.5. and above [Tuppy, H., et al., Hoppe-Seyler's Z. Physiol. Chem., 329, pp. 278-288 (1962)]; Raybuck and Luong, unpublished observations).
Kinetic constants for the rapid equilibrium ordered bisubstrate reaction were determined from rate vs [4A], [EDVV AbuC-pNA] data by non-linear least squares fitting to equation 1 [Morrison, J. F. Biochim. Biophys. Acta, 185, pp. 269-286 (1969)] as described in the text. Kii and Kis values for peptidyl inhibitors were determined from rate vs [inhibitor], [substrate] data and fitting to the equation for mixed inhibition: rate=Vmax[S]/{Km(1+[I]/Kis)+[S](1+[I]/Kii)} The commercial program KinetAsyst (StateCollege, Pa.) was used for both procedures. Ki values were calculated from rate vs [inhibitor] plots by a nonlinear least squares fit of the data to the equation of Morrison for tight binding competitive inhibition [Morrison, J. F. Biochim. Biophys. Acta, 185, pp. 269-286 (1969)]. The KineTic program (BioKin Ltd) was used for this procedure.
Ki values are expressed in μM. Category “A” indicates <1 μM inhibition; category “B” indicates 1-100 μM inhibition; category “C” indicates >100 μM.
Broadly, the Ki is the dissociation constant of the complex between target and ligand, obtained from inhibition or displacement. For `CCC(C=O)NC(=O)C1CC(OCc2cccc(Oc3ccccc3)c2)CN1C(=O)C(NC(=O)C(NC(=O)c1cnccn1)C(C)C)C(C)C` (stereo not drawn) [Compound 1] (Pyrazinecarbonyl-VV[Hyp](X5)[Abu]-aldehyde; configuration not given here), the inhibition constant Ki lay within 1 to 100 µM. With `CCC(C=O)NC(=O)C1CC(OCc2ccc(-c3ccccc3)cc2)CN1C(=O)C(NC(=O)C(NC(=O)c1cnccn1)C(C)C)C(C)C` (stereo not drawn) [Compound 2] (Pyrazinecarbonyl-VV[Hyp](X36)[Abu]-aldehyde; configuration not given here) the figure was 1 to 100 µM; with `CCC(C=O)NC(=O)C1CC(OCc2noc(-c3ccccc3)n2)CN1C(=O)C(NC(=O)C(NC(=O)c1cnccn1)C(C)C)C(C)C` (stereo not drawn) [Compound 3] (Pyrazinecarbonyl-VV[Hyp](X25)[Abu]-aldehyde; configuration not given here), 1 to 100 µM; with `CCC(C=O)NC(=O)C1CC(OCc2noc(-c3c(C)noc3C)n2)CN1C(=O)C(NC(=O)C(NC(=O)c1cnccn1)C(C)C)C(C)C` (stereo not drawn) [Compound 5] (Pyrazinecarbonyl-VV[Hyp](X35)[Abu]-aldehyde; configuration not given here), 1 to 100 µM. Turning to `CCC(C=O)NC(=O)C1CC(OCc2noc(C(C)(C)C)n2)CN1C(=O)C(NC(=O)C(NC(=O)c1cnccn1)C(C)C)C(C)C` (stereo not drawn) [Compound 6] (Pyrazinecarbonyl-VV[Hyp](X40)[Abu]-aldehyde; configuration not given here), the Ki lay within 1 to 100 µM.

For the compound `CCC(C=O)NC(=O)C1CC(OCc2cc(F)cc3c2OCOC3)CN1C(=O)C(NC(=O)C(NC(=O)c1cnccn1)C(C)C)C(C)C` (stereo not drawn) [Compound 8] (Pyrazinecarbonyl-VV[Hyp](X27)[Abu]-aldehyde; configuration not given here), the inhibition constant Ki was in the range of 1 to 100 µM.

Turning to `CCC(C=O)NC(=O)C1CC(OCc2cccc(OC(F)(F)F)c2)CN1C(=O)C(NC(=O)C(NC(=O)c1cnccn1)C(C)C)C(C)C` (stereo not drawn) [Compound 9] (Pyrazinecarbonyl-VV[Hyp](X21)[Abu]-aldehyde; configuration not given here), the inhibition constant Ki lay in the range of 1 to 100 µM. Under `CCC(C=O)NC(=O)C1CC(OCc2ccc(Cl)c(Cl)c2)CN1C(=O)C(NC(=O)C(NC(=O)c1cnccn1)C(C)C)C(C)C` (stereo not drawn) [Compound 10] (Pyrazinecarbonyl-VV[Hyp](Benzyl(3,4-Cl2))[Abu]-aldehyde; configuration not given here) stands 1 to 100 µM; under `CCC(C=O)NC(=O)C1CC(OCc2ccccc2-c2ccccc2)CN1C(=O)C(NC(=O)C(NC(=O)c1cnccn1)C(C)C)C(C)C` (stereo not drawn) [Compound 11] (Pyrazinecarbonyl-VV[Hyp](X11)[Abu]-aldehyde; configuration not given here), 1 to 100 µM; under `CCC(C=O)NC(=O)C1CC(OCc2c(C)noc2C)CN1C(=O)C(NC(=O)C(NC(=O)c1cnccn1)C(C)C)C(C)C` (stereo not drawn) [Compound 12] (Pyrazinecarbonyl-VV[Hyp](X1)[Abu]-aldehyde; configuration not given here), 1 to 100 µM. With `CCC(C=O)NC(=O)C1CC(OCc2cc3c(cc2Cl)OCO3)CN1C(=O)C(NC(=O)C(NC(=O)c1cnccn1)C(C)C)C(C)C` (stereo not drawn) [Compound 13] (Pyrazinecarbonyl-VV[Hyp](X15)[Abu]-aldehyde; configuration not given here) the figure was 1 to 100 µM; with `CCC(C=O)NC(=O)C1CC(OCc2noc(-c3ccccc3OC)n2)CN1C(=O)C(NC(=O)C(NC(=O)c1cnccn1)C(C)C)C(C)C` (stereo not drawn) [Compound 14] (Pyrazinecarbonyl-VV[Hyp](X2)[Abu]-aldehyde; configuration not given here), 1 to 100 µM; with `CCC(C=O)NC(=O)C1CC(OCc2ccc(C#N)cc2)CN1C(=O)C(NC(=O)C(NC(=O)c1cnccn1)C(C)C)C(C)C` (stereo not drawn) [Compound 15] (Pyrazinecarbonyl-VV[Hyp](X33)[Abu]-aldehyde; configuration not given here), 1 to 100 µM.

`CCC(C=O)NC(=O)C1CC(OCc2cccc(C(F)(F)F)c2)CN1C(=O)C(NC(=O)C(NC(=O)c1cnccn1)C(C)C)C(C)C` (stereo not drawn) [Compound 16] (Pyrazinecarbonyl-VV[Hyp](X20)[Abu]-aldehyde; configuration not given here): the inhibitory constant (Ki) lay within 1 to 100 µM. With `CCC(C=O)NC(=O)C1CC(OCc2ccc(C(F)(F)F)cc2)CN1C(=O)C(NC(=O)C(NC(=O)c1cnccn1)C(C)C)C(C)C` (stereo not drawn) [Compound 17] (Pyrazinecarbonyl-VV[Hyp](X24)[Abu]-aldehyde; configuration not given here) the figure was 1 to 100 µM; with `CCC(C=O)NC(=O)C1CC(OCc2ccc(OC(F)(F)F)cc2)CN1C(=O)C(NC(=O)C(NC(=O)c1cnccn1)C(C)C)C(C)C` (stereo not drawn) [Compound 18] (Pyrazinecarbonyl-VV[Hyp](X4)[Abu]-aldehyde; configuration not given here), 1 to 100 µM; with `CCC(C=O)NC(=O)C1CC(OCc2ccc3ccccc3c2)CN1C(=O)C(NC(=O)C(NC(=O)c1cnccn1)C(C)C)C(C)C` (stereo not drawn) [Compound 20] (Pyrazinecarbonyl-VV[Hyp](X10)[Abu]-aldehyde; configuration not given here), 1 to 100 µM. Under `CCC(C=O)NC(=O)C1CC(OCc2cccc(C#N)c2)CN1C(=O)C(NC(=O)C(NC(=O)c1cnccn1)C(C)C)C(C)C` (stereo not drawn) [Compound 21] (Pyrazinecarbonyl-VV[Hyp](X22)[Abu]-aldehyde; configuration not given here) stands 1 to 100 µM; under `CCC(C=O)NC(=O)C1CC(OCc2ccc(F)c(F)c2)CN1C(=O)C(NC(=O)C(NC(=O)c1cnccn1)C(C)C)C(C)C` (stereo not drawn) [Compound 22] (Pyrazinecarbonyl-VV[Hyp](X29)[Abu]-aldehyde; configuration not given here), 1 to 100 µM; under `CCC(C=O)NC(=O)C1CC(OCc2csc3ccc(Cl)cc23)CN1C(=O)C(NC(=O)C(NC(=O)c1cnccn1)C(C)C)C(C)C` (stereo not drawn) [Compound 23] (Pyrazinecarbonyl-VV[Hyp](X31)[Abu]-aldehyde; configuration not given here), 1 to 100 µM. As for `CCC(C=O)NC(=O)C1CC(OCc2cnc(-c3ccc(Cl)cc3)s2)CN1C(=O)C(NC(=O)C(NC(=O)c1cnccn1)C(C)C)C(C)C` (stereo not drawn) [Compound 24] (Pyrazinecarbonyl-VV[Hyp](X26)[Abu]-aldehyde; configuration not given here), the inhibition constant (Ki) is 1 to 100 µM.

As to `CCC(C=O)NC(=O)C1CC(OCc2cccc3ccccc23)CN1C(=O)C(NC(=O)C(NC(=O)c1cnccn1)C(C)C)C(C)C` (stereo not drawn) [Compound 26] (Pyrazinecarbonyl-VV[Hyp](CH2(1-naphthyl))[Abu]-aldehyde; configuration not given here), the Ki lay in the range of 1 to 100 µM. `CCC(C=O)NC(=O)C1CC(OC(=O)c2ccc(Cl)c(Cl)c2)CN1C(=O)C(NC(=O)C(NC(=O)c1cnccn1)C(C)C)C(C)C` (stereo not drawn) [Compound 27] (Pyrazinecarbonyl-VV[Hyp](X7)[Abu]-aldehyde; configuration not given here): the Ki was in the range of 1 to 100 µM.

Take `CCC(C=O)NC(=O)C1CC(OC(=O)c2ccccc2)CN1C(=O)C(NC(=O)C(NC(=O)c1cnccn1)C(C)C)C(C)C` (stereo not drawn) [Compound 28] (Pyrazinecarbonyl-VV[Hyp](Bz)[Abu]-aldehyde; configuration not given here): the Ki lay within 1 to 100 µM.

The record behind these values is patent publication US7388017B2, “Inhibitors of serine proteases, particularly hepatitis C virus NS3 protease” (Vertex Pharmaceuticals Incorporated, priority 1996, dated 2008).
